Measurements: patent publication US5541229A, “Benzimidazoles and medicaments containing these compounds” (Dr. Karl Thomae GmbH, priority 1989, dated 1996)
Read-outs that look alike come from different tables or passages of the source.

How the values were obtained:
[1] = molecular target: T1, bovine adrenal gland receptor preparations (Bos taurus, UniProt P25104); test: inhibition of angiotensin II bonding to bovine adrenal gland receptor preparations; type: binding
T1 construct: aliquots of a membrane preparation of bovine adrenal cortex in tris buffer; from tissue; host or cells: bovine adrenal cortex membranes
T1 sequence (P25104 1-359): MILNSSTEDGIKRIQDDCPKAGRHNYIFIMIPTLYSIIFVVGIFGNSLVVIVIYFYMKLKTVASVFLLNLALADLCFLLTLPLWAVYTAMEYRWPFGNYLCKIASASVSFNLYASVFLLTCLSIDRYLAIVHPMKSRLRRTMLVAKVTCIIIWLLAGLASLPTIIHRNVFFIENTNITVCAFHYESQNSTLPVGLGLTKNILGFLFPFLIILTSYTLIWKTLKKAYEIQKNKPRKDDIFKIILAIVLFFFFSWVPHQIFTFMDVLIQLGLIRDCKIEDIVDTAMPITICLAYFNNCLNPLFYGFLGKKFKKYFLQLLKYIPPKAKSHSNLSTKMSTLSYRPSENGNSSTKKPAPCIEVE
Description: After 45 minutes the incubation was stopped by rapid filtration through glass fibre filters. The radioactivity associated with the filter was determined in a […] at a counting efficiency of 80%.

angiotensin II = molecular target: T2, angiotensin II (Rattus norvegicus, UniProt P25095); test: displacement of angiotensin II dose-effect curves (increase in arterial blood pressure) in rats, pA2; type: in vivo; conditions: average, angiotensin II antagonism in rats, 10, 20 and 30 mg/kg i.v.
T2 construct: The measured parameter is the increase in the arterial blood pressure; from tissue; host or cells: whole anaesthetised rat with destroyed spine, in vivo (vascular receptors)
T2 sequence (P25095 1-359): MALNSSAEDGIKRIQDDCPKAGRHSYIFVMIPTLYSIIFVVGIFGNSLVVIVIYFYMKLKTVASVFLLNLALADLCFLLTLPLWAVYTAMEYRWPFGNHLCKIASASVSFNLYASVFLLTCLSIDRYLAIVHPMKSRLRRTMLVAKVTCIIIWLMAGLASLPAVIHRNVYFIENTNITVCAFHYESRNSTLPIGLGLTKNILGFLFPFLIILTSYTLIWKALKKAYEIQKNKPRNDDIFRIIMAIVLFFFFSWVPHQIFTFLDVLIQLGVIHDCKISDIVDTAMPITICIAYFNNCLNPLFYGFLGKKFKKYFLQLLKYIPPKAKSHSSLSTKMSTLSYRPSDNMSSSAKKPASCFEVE
Description: a) rats (male, 180-220 g) are anaesthetised using sodium hexobarbital (150 mg/kg i.p.). After the anaesthetic has taken effect, a tracheal cannula is inserted, the spine is destroyed in the animals and then they are immediately respirated artifically using a respiratory pump. The arterial blood pressure is recorded via a cannula in the carotid artery by means of a Bell & Howell pressure sensor. Substances are administered via a cannula in the jugular vein. Test substances are administered in three doses (10, 20 and 30 mg/kg i.v.), wherein one dose of substance is tested per animal. […] The measured parameter is the increase in the arterial blood pressure. These dose-effect graphs are compared with standard graphs for angiotensin II without test substances. A computer program determines the displacements to the right of the dose-effect graphs for angiotensin II as a result of test substances, and calculates corresponding pA2 values for the test substances.

## CCCCCCN(C(=O)NC1CCCCC1)c1ccc2nc(CCCC)n(Cc3ccc(-c4ccccc4C(=O)O)cc3)c2c1 [S]
[1]
  IC50: 72 nM
Angiotensin II
  pA2 values: 6,69

## CCCCc1nc2ccc(N(CCCC)C(=O)NC3CCCCC3)cc2n1Cc1ccc(-c2ccccc2C(=O)O)cc1 [B]
[1]
  IC50: 29 nM
Angiotensin II
  pA2 values: 6,63

## CCCCCN(C(=O)NC1CCCCC1)c1ccc2nc(CCCC)n(Cc3ccc(-c4ccccc4C(=O)O)cc3)c2c1 [G]
[1]
  IC50: 46 nM
Angiotensin II
  pA2 values: 6,89

## CCCCc1nc2c(C)ccc(O)c2n1Cc1ccc(-c2ccccc2-c2nn[nH]n2)cc1 [X]
[1]
  IC50: 99 nM
Angiotensin II
  pA2 values: 6,57

## CCCCCN(C(=O)NC)c1ccc2nc(CCCC)n(Cc3ccc(-c4ccccc4C(=O)O)cc3)c2c1 [U]
[1]
  IC50: 79 nM
Angiotensin II
  pA2 values: 7,20

## CCCCc1nc2ccc(N(C)C(=O)NC3CCCCC3)cc2n1Cc1ccc(-c2ccccc2C(=O)O)cc1 [E]
[1]
  IC50: 46 nM
Angiotensin II
  pA2 values: 7,34

## CCCCc1nc2ccc(N(Cc3ccccc3)C(=O)NC)cc2n1Cc1ccc(-c2ccccc2C(=O)O)cc1 [H]
[1]
  IC50: 51 nM
Angiotensin II
  pA2 values: 6,48

## CCCCc1nc2ccc(N(Cc3ccccc3)C(=O)NC3CCCCC3)cc2n1Cc1ccc(-c2ccccc2C(=O)O)cc1 [J]
[1]
  IC50: 54 nM
Angiotensin II
  pA2 values: 7,38

## CCCCc1nc2ccc(NC(=O)NC3CCCCO3)cc2n1Cc1ccc(-c2ccccc2C(=O)O)cc1 (stereo not drawn) [N]
[1]
  IC50: 65 nM
Angiotensin II
  pA2 values: 7,02

## CCCCc1nc2ccc(N3C(=O)[C@H]4CCCC[C@H]4C3=O)cc2n1Cc1ccc(-c2ccccc2C(=O)O)cc1 [Y]
[1]
  IC50: 150 nM
Angiotensin II
  pA2 values: 6,97

## CCCCc1nc2ccc(N3C(=O)[C@H]4CCCC[C@H]4C3=O)cc2n1Cc1ccc(-c2ccccc2-c2nn[nH]n2)cc1 [CC]
[1]
  IC50: 1000 nM
Angiotensin II
  pA2 values: 8,54

## CCCCc1nc2ccc(N(Cc3ccccc3)C(=O)N(C)C)cc2n1Cc1ccc(-c2ccccc2C(=O)O)cc1 [Z]
[1]
  IC50: 133 nM
Angiotensin II
  pA2 values: 7,15

## CCCCc1nc2ccc(N3Cc4ccccc4C3=O)cc2n1Cc1ccc(-c2ccccc2C(=O)O)cc1 [I]
[1]
  IC50: 51 nM
Angiotensin II
  pA2 values: 6,12

## CCCCc1nc2ccc(NC(=O)N(C)C)cc2n1Cc1ccc(-c2ccccc2C(=O)O)cc1 [R]
[1]
  IC50: 72 nM
Angiotensin II
  pA2 values: 7,16

## CCCCC(=O)Nc1ccc2nc(CCCC)n(Cc3ccc(-c4ccccc4C(=O)O)cc3)c2c1 [K]
[1]
  IC50: 57 nM
Angiotensin II
  pA2 values: 6,38

## CCCCc1nc2ccc(NC(=O)C3CCCCC3)cc2n1Cc1ccc(-c2ccccc2C(=O)O)cc1 [V]
[1]; 50% inhibition of the specific 125I-angiotensin II (50 pM) bonding, bovine adrenal cortex membranes, 45 minutes
  IC50: 84 nM
Angiotensin II
  pA2 values: 7,26

## CCCCCCNC(=O)N(Cc1ccccc1)c1ccc2nc(CCCC)n(Cc3ccc(-c4ccccc4C(=O)O)cc3)c2c1 [A]
[1]
  IC50: 29 nM
Angiotensin II
  pA2 values: 7,23

## CCCCc1nc2ccc(NC(=O)C(C)C)cc2n1Cc1ccc(-c2ccccc2C(=O)O)cc1 [M]
[1]
  IC50: 61 nM
Angiotensin II
  pA2 values: 6,87

## CCCCc1nc2ccc(N(CC)C(=O)NC3CCCCC3)cc2n1Cc1ccc(-c2ccccc2C(=O)O)cc1 [C]
[1]
  IC50: 31 nM
Angiotensin II
  pA2 values: 6,36

## CCCCc1nc2ccc(NC(=O)C3CCCC3)cc2n1Cc1ccc(-c2ccccc2C(=O)O)cc1 [BB]
[1]
  IC50: 46 nM

## CCCCc1nc2ccc(NC(=O)CC)cc2n1Cc1ccc(-c2ccccc2C(=O)O)cc1 [L]
[1]
  IC50: 58 nM
Angiotensin II
  pA2 values: 6,04

## CCCCc1nc2ccc(NC(=O)CCC)cc2n1Cc1ccc(-c2ccccc2C(=O)O)cc1 [P]
[1]
  IC50: 67 nM
Angiotensin II
  pA2 values: 6,46

## CCCCNC(=O)N(C)c1ccc2nc(CCCC)n(Cc3ccc(-c4ccccc4C(=O)O)cc3)c2c1 [W]
[1]
  IC50: 86 nM
Angiotensin II
  pA2 values: 6,28

## CCCCc1nc2ccc(N(CCC)C(=O)NC3CCCCC3)cc2n1Cc1ccc(-c2ccccc2C(=O)O)cc1 [D]
[1]
  IC50: 44 nM
Angiotensin II
  pA2 values: 6,59

## CCCCNC(=O)Nc1ccc2nc(CCCC)n(Cc3ccc(-c4ccccc4C(=O)O)cc3)c2c1 [O]
[1]
  IC50: 65 nM
Angiotensin II
  pA2 values: 6,46

## CCCCc1nc2ccc(N(Cc3ccccc3)C(=O)OCC)cc2n1Cc1ccc(-c2ccccc2C(=O)O)cc1 [Q]
[1]
  IC50: 68 nM
Angiotensin II
  pA2 values: 6,83

## CCCCc1nc2ccc(NC(=O)NCCCCCO)cc2n1Cc1ccc(-c2ccccc2C(=O)O)cc1 [T]
[1]
  IC50: 76 nM
Angiotensin II
  pA2 values: 7,20

## CCCCCCNC(=O)N(CCc1ccccc1)c1ccc2nc(CCCC)n(Cc3ccc(-c4ccccc4C(=O)O)cc3)c2c1 [AA]
[1]
  IC50: 100 nM
